Experimental data reported in patent publication US20260001928A1 (CORTERIA PHARMACEUTICALS, priority 2022, published 2026).
*1 amine or outer side, *2 acyl side, *3 side chain or, on linkers, in order; H or OH if unused. Where a SMILES comes first, the peptide text is derived from it. Side-chain parts run from the residue outwards. [ ]: non-standard residue; d: D form. The star is where a group is joined. C20 diacid = O=C(O)CCCCCCCCCCCCCCCCCCC(=O)*; γGlu = O=C(O)[C@H](CCC(=O)[*:2])N[*:1]; NMeI = CC[C@H](C)[C@H](NC)C(=O)O; Aib = CC(C)(N)C(=O)O

Key:
human CRF2a receptor = biological target: T1, human CRF2a receptor (Homo sapiens, UniProt Q13324); assay: Activity at human CRF2a receptor, cAMP functional assay in TeloHEAC cells; type: cell-based; settings: TeloHEAC cells stably expressing human CRF2a receptor, relative to urocortin 2 (100 nM = 100%)
T1 construct: expressed in transfected cells; host or cells: TeloHEAC cells
T1 sequence (Q13324 1-411): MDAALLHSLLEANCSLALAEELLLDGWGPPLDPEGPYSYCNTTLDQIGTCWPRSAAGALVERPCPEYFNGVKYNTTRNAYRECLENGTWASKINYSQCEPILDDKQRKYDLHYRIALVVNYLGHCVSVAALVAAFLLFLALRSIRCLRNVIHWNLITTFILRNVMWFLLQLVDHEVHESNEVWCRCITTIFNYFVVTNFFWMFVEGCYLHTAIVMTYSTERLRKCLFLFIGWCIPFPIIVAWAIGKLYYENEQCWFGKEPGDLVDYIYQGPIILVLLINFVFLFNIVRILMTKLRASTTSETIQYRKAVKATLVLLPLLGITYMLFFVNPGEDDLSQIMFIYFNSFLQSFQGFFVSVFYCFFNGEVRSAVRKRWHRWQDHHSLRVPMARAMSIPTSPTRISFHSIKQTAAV
Summary of the method: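 TeloHEAC cells stably expressing human CRF2a (10000 cells/well) were treated with 16-point 1:2 compound dilutions in HBSS/20 mM HEPES with IBMX for 30 min at 37° C. cAMP was read by HTRF (665/620 nm ratio). EC50 was the concentration giving 50% activation, with 100 nM urocortin 2 set as 100%.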

CFR1R receptor = biological target: T2, CFR1R receptor (Homo sapiens, UniProt P34998); assay: Activity at anti-target CFR1R receptor, cAMP assay in CRF1R-overexpression CHO-K1 cells; type: cell-based; settings: 100% = Sauvagine at 100 nM
T2 construct: host or cells: CHO-K1 (clone 2)
T2 sequence (P34998 24-415): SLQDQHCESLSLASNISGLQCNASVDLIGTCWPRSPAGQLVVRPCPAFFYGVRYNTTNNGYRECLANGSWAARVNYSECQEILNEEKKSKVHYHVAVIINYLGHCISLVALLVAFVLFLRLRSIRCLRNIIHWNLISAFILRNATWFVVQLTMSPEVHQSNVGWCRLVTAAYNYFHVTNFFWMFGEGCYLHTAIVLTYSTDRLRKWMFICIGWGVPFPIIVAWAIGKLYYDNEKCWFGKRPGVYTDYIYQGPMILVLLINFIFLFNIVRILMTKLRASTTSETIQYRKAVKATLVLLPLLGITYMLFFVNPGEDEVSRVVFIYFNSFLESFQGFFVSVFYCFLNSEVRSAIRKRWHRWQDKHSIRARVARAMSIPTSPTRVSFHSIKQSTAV
Summary of the method: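 The method mirrors that used with TeloHAEC cells. Here, thawed clone 2 cells seeded at 4000 cells/well are tested, and 100 nM Sauvagine sets the top of the activation scale.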

[1] = In vitro plasma stability, human plasma; type: in vitro ADME; design: dose or concentration left out as unconfirmed; settings: Human PLM, 37° C.
Procedure: In vitro plasma metabolic stability was studied in male Sprague Dawley rats and human. Test compounds were incubated at 3 M for 2 hours at 37° C. At each time point (0, 0.25, 1 and 2 h), samples were prepared for analysis by means of a single step protein precipitation technique by adding 150 μL of ethanol, 0.1% formic acid to 50 μL aliquots of plasma. Samples were mixed by vortex for homogeneity and then subjected to centrifugation at 14000 rpm for 15 min. The supernatant (100 μL) was collected, diluted with 100 μL of water, 0.1% formic acid and analyzed by LC-HRMS (TripleTOF 6600+, AB Sciex). For each test compound, the area ratios at each time point were compared to the 0 h area ratio and converted to a percentage remaining.

Sprague Dawley rats = assay: Effect on systolic blood pressure, telemetry in Sprague Dawley rats; type: in vivo, rat; settings: 0.1 mg/kg SC
Summary of the method: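 Values are % change from a 1 h pre-dose baseline in systolic pressure, tracked by telemetry for up to 48 hours after a single 0.1 mg/kg subcutaneous dose. Rats (Sprague Dawley, n=2 per peptide) carried aortic catheters and recovered at least 10 days post-surgery; duration of action marks the last time point still showing an effect.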

[2] = Pharmacokinetics in male Sprague Dawley rats after subcutaneous administration; type: in vivo; settings: plasma, rat

CC[C@H](C)[C@H](NC)C(=O)N[C@H](C(=O)N[C@@H](CC(C)C)C(=O)N[C@@H](CO)C(=O)N[C@@H](CC(C)C)C(=O)N[C@@H](CC(=O)O)C(=O)N[C@@H](C(=O)N1CCC[C@H]1C(=O)N[C@H](C(=O)N[C@@H](CCCCN)C(=O)N[C@@H](CC(C)C)C(=O)N[C@@H](CCCCNC(=O)CC[C@H](NC(=O)CCCCCCCCCCCCCCCCCCC(=O)O)C(=O)O)C(=O)N[C@@H](CCCCN)C(=O)N[C@H](C(=O)N[C@@H](CC(C)C)C(=O)N[C@@H](CC(C)C)C(=O)N[C@@H](CCC(=O)O)C(=O)N[C@@H](CCC(N)=O)C(=O)N[C@@H](CCC(=O)O)C(=O)N[C@@H](CCCCN)C(=O)N[C@@H](CCC(N)=O)C(=O)N[C@@H](CCCCN)C(=O)N[C@@H](CCC(=O)O)C(=O)N[C@@H](CCC(N)=O)C(=O)N[C@@H](CCCNC(=N)N)C(=O)N[C@@H](CCC(=O)O)C(=O)N[C@@H](CCC(N)=O)C(=O)N[C@@H](C)C(=O)N[C@@H](CCC(=O)O)C(=O)N[C@H](C(=O)N[C@@H](CC(N)=O)C(=O)NC(C)(C)C(=O)N[C@@H](CCC(N)=O)C(=O)N[C@H](C(=O)N[C@@H](CC(C)C)C(=O)N[C@@H](C)C(=O)N[C@@H](CCC(N)=O)C(=O)N[C@H](C(N)=O)C(C)C)[C@@H](C)CC)[C@@H](C)O)[C@@H](C)CC)[C@@H](C)CC)C(C)C)C(C)C [compound 218] (H-[NMeI]VLSLD[dV]PIKLK([γGlu-C20 diacid])KILLEQEKQKEQREQAETN[Aib]QILAQV-NH2)
EC50 (human CRF2a receptor): 0.11 nM | Emax (% I) (CFR1R receptor): 24 % I | EC50 (CFR1R receptor; cAMP): > 250 nM | remaining at 2 h [1]: 99% | Systolic blood pressure (Mean) % change from baseline, 8 h (Sprague Dawley rats; 8 h, n=2): −13% | Systolic blood pressure (Mean) % change from baseline, 12 h (Sprague Dawley rats; 12 h, n=2): −17% | Systolic blood pressure (Mean) % change from baseline, 24 h (Sprague Dawley rats; 24 h, n=2): −16% | Duration of action (Sprague Dawley rats; last time point with an effect on BP still observed): >24 h | AUC(0-t) ([2]; IV, 0.05 mg/kg): 6740 ng·h/mL | half-life ([2]; IV, 0.05 mg/kg): 11 h | Tmax ([2]; SC, 0.1 mg/kg): 24 h
